From US20100144818A1, “1-BENZYLPYRAZOLE DERIVATIVES, PREPARATION THEREOF AND THERAPEUTIC USE THEREOF” (SANOFI-AVENTIS, priority 2007, published 2010)

Tests used:
[1] = Model of passage through the intestinal barrier constituted of Caco-2 cells; assay type: in vitro ADME; details: human, concentration=20 μM, apical pH=6.5 and basal pH=7.4, read-out: Ptot, coefficient of apparent permeability for the monolayer of intestinal epithelial cells plus filter
Text: The compounds according to the invention were investigated on a model of passage through the intestinal barrier constituted of Caco-2 cells. (M. C. Grès, Pharm. Res., 1998, 15(5), 726-733). This model makes it possible to define the coefficient Ptot of apparent permeability of the product for the monolayer of intestinal epithelial cells plus filter. As examples, compounds No. 60 (ex. 5) and No. 90 (ex. 7) have, in this model, a Ptot of 111.97 and 64.5 respectively (10^−7 cm·s^−1; concentration=20 μM; apical pH=6.5 and basal pH=7.4). These values are predictive of total absorption in humans, after administration by the oral route.

| Papp at 20 μM [1] | melting point | Compound |
| --- | --- | --- |
| 11.2 ×10⁻⁶ cm/s | – | CC(C)(C)C(=O)NCc1cc(-c2ccc(Cl)c(Cl)c2)n(Cc2ccc(Cl)c(Cl)c2)n1 [Compound 60, N-((1-(3,4-Dichlorobenzyl)-5-(3,4-dichlorophenyl)-1H-pyrazol-3-yl)methyl)-2,2-dimethylpropanamide] |
| – | 181 °C | Cc1ccc(Cn2nc(CNC(=O)NC(C)(C)C)cc2-c2ccc(Cl)c(Cl)c2)cc1Cl [Compound 81, N-(tert-Butyl)-N′-((1-(3-chloro-4-methylbenzyl)-5-(3,4-dichlorophenyl)-1H-pyrazol-3-yl)methyl)urea] |
| 6.45 ×10⁻⁶ cm/s | 127 °C | CC(C)(C)S(=O)(=O)NCc1cc(-c2ccc(Cl)c(Cl)c2)n(Cc2ccc(Cl)c(Cl)c2)n1 [Compound 90, N-((1-(3,4-Dichlorobenzyl)-5-(3,4-dichlorophenyl)-1H-pyrazol-3-yl)methyl)-2-methylpropane-2-sulfonamide] |
